Legend:
[1] = Stability of [44Sc]Sc-AAZTA.QS.PSMA; format: in vitro ADME; settings: over a period of 24 hours
Description: Similar to DATA, the AAZTA chelator can also be labeled with radio nuclides such as ^44Sc and ^68Ga under mild conditions. In the instant example, the radioisotope ^44Sc is used and the properties of the radiotracer [^44Sc]Sc-AAZTA.QS.PSMA are investigated. The synthesis shown in FIG. 44 was readily carried out with high yield. […] The stability of [^44Sc]Sc-AAZTA.QS.PSMA exceeds 95% over a period of 24 hours (FIG. 46).

[2] = tested on: LNCap tumor; assay: Ex vivo activities of [44Sc]Sc-AAZTA.QS.PSMA with and without 2-PMPA blocking; format: in vivo, mice; settings: for Ex vivo activity kindneys: kidneys
Description: The radiotracer [^44Sc]Sc-AAZTA.QS.PSMA was further examined in vivo in three mice, each carrying an LNCap tumor. In addition blocking tests were carried out on one of the mice. […] The same applies to the kidneys.

Compound: O=C(O)CCC(NC(=O)NC(CCCCNc1c(NCCNC(=O)CCCCC2(N(CC(=O)O)CC(=O)O)CN(CC(=O)O)CCN(CC(=O)O)C2)c(=O)c1=O)C(=O)O)C(=O)O.[44Sc+3] (stereo not shown) [^44Sc.AAZTA.QS.KuE]
- stability [1]: exceeds 95%
- Ex vivo activity LN ([2]; Block (+PMPA)): 0.39 % ID/g
- Ex vivo activity LN ([2]; mouse (1), no blocking): 1.33 % ID/g
- Ex vivo activity LN ([2]; mouse (2), no blocking): 0.38 % ID/g
- Ex vivo activity blood ([2]; Block (+PMPA)): 0.34 % ID/g
- Ex vivo activity blood ([2]; mouse (1), no blocking): 0.96 % ID/g
- Ex vivo activity blood ([2]; mouse (2), no blocking): 0.41 % ID/g
- Ex vivo activity bone ([2]; Block (+PMPA)): 0.10 % ID/g
- Ex vivo activity bone ([2]; mouse (1), no blocking): 0.46 % ID/g
- Ex vivo activity bone ([2]; mouse (2), no blocking): 0.29 % ID/g
- Ex vivo activity heart ([2]; Block (+PMPA)): 0.11 % ID/g
- Ex vivo activity heart ([2]; mouse (1), no blocking): 0.41 % ID/g
- Ex vivo activity heart ([2]; mouse (2), no blocking): 0.14 % ID/g
- Ex vivo activity kindneys ([2]; Block (+PMPA)): 7.97 % ID/g
- Ex vivo activity kindneys ([2]; mouse (1), no blocking): 119.86 % ID/g
- Ex vivo activity kindneys ([2]; mouse (2), no blocking): 42.76 % ID/g
- Ex vivo activity liver ([2]; Block (+PMPA)): 0.16 % ID/g
- Ex vivo activity liver ([2]; mouse (1), no blocking): 0.42 % ID/g
- Ex vivo activity liver ([2]; mouse (2), no blocking): 0.16 % ID/g
- Ex vivo activity lung ([2]; Block (+PMPA)): 0.06 % ID/g
- Ex vivo activity lung ([2]; mouse (1), no blocking): 1.31 % ID/g
- Ex vivo activity lung ([2]; mouse (2), no blocking): 0.59 % ID/g
- Ex vivo activity muscle ([2]; Block (+PMPA)): 0.05 % ID/g
- Ex vivo activity muscle ([2]; mouse (1), no blocking): 0.38 % ID/g
- Ex vivo activity muscle ([2]; mouse (2), no blocking): 0.13 % ID/g
- Ex vivo activity salivary glands ([2]; Block (+PMPA)): 0.11 % ID/g
- Ex vivo activity salivary glands ([2]; mouse (1), no blocking): 0.51 % ID/g
- Ex vivo activity salivary glands ([2]; mouse (2), no blocking): 0.18 % ID/g
- Ex vivo activity small intestine ([2]; Block (+PMPA)): 0.35 % ID/g
- Ex vivo activity small intestine ([2]; mouse (1), no blocking): 0.62 % ID/g
- Ex vivo activity small intestine ([2]; mouse (2), no blocking): 0.22 % ID/g
- Ex vivo activity spleen ([2]; Block (+PMPA)): 0.15 % ID/g
- Ex vivo activity spleen ([2]; mouse (1), no blocking): 6.19 % ID/g
- Ex vivo activity spleen ([2]; mouse (2), no blocking): 1.15 % ID/g
- Ex vivo activity tumor ([2]; Block (+PMPA)): 0.53 % ID/g
- Ex vivo activity tumor ([2]; mouse (1), no blocking): 14.73 % ID/g
- Ex vivo activity tumor ([2]; mouse (2), no blocking): 14.14 % ID/g

Source: patent publication US11833229B2, “Labeling precursors with squaric acid coupling” (SCV—SpezialChemikalienVertrieb GmbH, priority 2019, dated 2023)
